# Measurements: patent US20080015214A1 (priority 2005, published 2008)
# Columns and labels:
# Assay in all cases: biochemical
# Type in all cases: binding
# [1] = biological target: human nociceptin receptor (ORL-1) (Homo sapiens, UniProt P41146)
# [2] = biological target: kappa (κ) opioid receptor (Homo sapiens, UniProt P41145); settings: 2C2 cell line membrane, U69593-H3 ligand
# mu (μ) opioid receptor = mu (μ) opioid receptor (Homo sapiens, UniProt P35372)
# Chain of mu (μ) opioid receptor (P35372 whole entry): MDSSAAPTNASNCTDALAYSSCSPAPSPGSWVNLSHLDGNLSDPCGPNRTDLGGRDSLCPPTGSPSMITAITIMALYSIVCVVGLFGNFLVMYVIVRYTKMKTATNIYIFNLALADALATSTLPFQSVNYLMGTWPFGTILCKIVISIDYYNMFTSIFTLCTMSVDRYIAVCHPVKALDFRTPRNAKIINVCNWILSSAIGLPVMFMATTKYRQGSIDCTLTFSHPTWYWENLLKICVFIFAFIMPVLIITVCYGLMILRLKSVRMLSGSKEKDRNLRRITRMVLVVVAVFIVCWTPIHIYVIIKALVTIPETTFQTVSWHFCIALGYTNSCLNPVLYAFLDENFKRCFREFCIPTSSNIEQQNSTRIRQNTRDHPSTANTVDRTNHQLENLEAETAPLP
# Chain of kappa (κ) opioid receptor (P41145 whole entry): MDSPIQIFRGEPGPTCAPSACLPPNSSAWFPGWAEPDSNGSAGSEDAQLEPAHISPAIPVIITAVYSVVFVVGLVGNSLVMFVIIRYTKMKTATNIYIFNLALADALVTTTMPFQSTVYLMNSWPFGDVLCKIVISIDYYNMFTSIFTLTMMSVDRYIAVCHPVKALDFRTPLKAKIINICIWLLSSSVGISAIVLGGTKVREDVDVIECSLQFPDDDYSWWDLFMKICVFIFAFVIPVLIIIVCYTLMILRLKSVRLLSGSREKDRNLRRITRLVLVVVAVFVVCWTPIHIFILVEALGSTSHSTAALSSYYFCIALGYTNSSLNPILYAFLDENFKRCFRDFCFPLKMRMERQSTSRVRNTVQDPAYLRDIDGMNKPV
# Chain of human nociceptin receptor (ORL-1) (P41146 whole entry): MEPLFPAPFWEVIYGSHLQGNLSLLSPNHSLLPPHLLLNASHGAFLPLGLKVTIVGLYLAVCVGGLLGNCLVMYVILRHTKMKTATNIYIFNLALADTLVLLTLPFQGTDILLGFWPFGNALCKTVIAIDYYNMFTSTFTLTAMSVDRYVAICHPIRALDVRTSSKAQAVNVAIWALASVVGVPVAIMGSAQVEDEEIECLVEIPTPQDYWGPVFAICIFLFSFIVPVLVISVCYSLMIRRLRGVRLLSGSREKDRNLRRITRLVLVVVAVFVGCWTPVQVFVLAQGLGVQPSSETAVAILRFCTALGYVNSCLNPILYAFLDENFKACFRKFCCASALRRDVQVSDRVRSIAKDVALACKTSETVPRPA
IC50 [1] [nM],IC50 (mu (μ) opioid receptor) [nM],SMILES,IC50 [2] [nM]
3500,–,"c1cnc2[nH]cc(C3CCN(CC4CCCCC4)CC3)c2c1 [Cpd 52, 3-(1-cyclohexylmethyl-piperidin-4-yl)-1H-pyrrolo [2,3-b]pyridine]",–
–,–,"c1cc2c3c(cccc3c1)C(N1CCC(c3cn(C4Cc5cccc6cccc4c56)c4ncccc34)CC1)C2 (stereo not drawn) [Cpd 35, 1-acenaphthen-1-yl-3-(1-acenaphthen-1-yl-piperidin-4-yl)-1H-pyrrolo[2,3-b]pyridine]",840
–,–,"OC1CN(C2Cc3cccc4cccc2c34)CCC1c1c[nH]c2ncccc12 (mixture of isomers) [Cpd 40, 1-acenaphthen-1-yl-4-(1 H-pyrrolo[2,3-b]pyridin-3-yl)-piperidin-3-ol]",4300
–,339,"c1ccc(Oc2ccc(CN3CCC(c4c[nH]c5ncccc45)CC3)cc2)cc1 [Cpd 55, 3-[1-(4-phenoxy-benzyl)-piperidin-4-yl]-1H-pyrrolo[2,3-b]pyridine]",–
821,345,"c1ccc2c(CN3CCC(c4c[nH]c5ncccc45)CC3)cccc2c1 [Cpd 33, 3-(1-naphthalen-1-ylmethyl-piperidin-4-yl)-1H-pyrrolo[2,3-b]pyridine]",–
